Consider 11 compounds from PubChem BioAssay (NCI).

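In this assay, cells in 96-well plates receive the compound at five concentrations for 48 hours. Endpoints are linearly interpolated between the surrounding concentrations. GI50 is the concentration that inhibits growth by half. Definition used: TGI = concentration required for complete inhibition of growth.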

Some test systems named below: HCT-15 colon; CCRF-CEM leukemia; SN12C renal; MDA-MB-231 breast; U251 CNS; SK-MEL-2 melanoma; HOP-62 NSCLC; DLD-1 colon.
Common to all, as to assay: NCI anticancer screen, dose series, 48 h

As to `Clc1nc(Cl)c2ncn(Cc3ccc(COc4cccc(OCc5ccc(Cn6cnc7c(Cl)nc(Cl)nc76)cc5)c4)cc3)c2n1`, the GI50 was 28.8 µM in the test on HCT-15 colon; 17.2 µM in the test on CCRF-CEM leukemia; 92.4 µM with SN12C renal; 17.4 µM in the test on MDA-MB-231 breast; 19.8 µM in the test on U251 CNS; 28.2 µM in the test with SK-MEL-2 melanoma. Also, in the test with HOP-62 NSCLC, the GI50 is 63.4 µM. In addition, the TGI with HCT-15 colon was greater than 100 µM; in the test with CCRF-CEM leukemia, greater than 100 µM; in the test on SN12C renal, greater than 100 µM; in the test on MDA-MB-231 breast it was 53.2 µM; with U251 CNS it was greater than 100 µM; with SK-MEL-2 melanoma it was greater than 100 µM. In the test with HOP-62 NSCLC, this compound yielded a TGI greater than 100 µM.

For `C=C(C)C(=O)O[C@H]1[C@H]2[C@H](OC(=O)[C@H]2C)[C@H](O)[C@@H](C)[C@@H]2C=CC(=O)[C@]21C`, the TGI amounted to 6.38 µM in the test with HCT-15 colon; 7.53 µM in the test on CCRF-CEM leukemia; 4.96 µM in the test with SN12C renal; 14 µM in the test with MDA-MB-231 breast; 12.1 µM in the test on U251 CNS; 18.4 µM with SK-MEL-2 melanoma. Also, the TGI with HOP-62 NSCLC is 34.1 µM.

As to `CC(C)NC(=O)OCCS(=O)c1c(Cl)c(Cl)nn1C` (centres undefined), the TGI in the test on HCT-15 colon was 43.8 µM; with CCRF-CEM leukemia it was greater than 100 µM; in the test with SN12C renal, greater than 100 µM; in the test with MDA-MB-231 breast, 70.7 µM; in the test on U251 CNS, greater than 100 µM; in the test with SK-MEL-2 melanoma, greater than 100 µM. This compound also returned a TGI with HOP-62 NSCLC greater than 100 µM.

In the case of `CC(CNC(Cc1ccccc1)c1ccccc1)NC(Cc1ccccc1)c1ccccc1` (centres undefined), the GI50 in the test on HCT-15 colon is 2 µM; with CCRF-CEM leukemia, 2.74 µM; in the test on SN12C renal it was 2.22 µM; with MDA-MB-231 breast it was 1.81 µM; in the test on U251 CNS it was 2.59 µM; in the test on SK-MEL-2 melanoma, 2.18 µM. Besides, the GI50 in the test with HOP-62 NSCLC is 3.41 µM. Moreover, the TGI in the test on HCT-15 colon was found to be 4.87 µM; in the test on CCRF-CEM leukemia it was 7.84 µM; with SN12C renal, 6.38 µM; in the test with MDA-MB-231 breast it was 3.7 µM; in the test on U251 CNS, 7.37 µM; in the test with SK-MEL-2 melanoma it was 4.28 µM. The TGI with HOP-62 NSCLC is 12.4 µM.

On to `Cn1ccnc1C(=O)/C=C/c1ccc(CC(=O)Nc2ccccc2)cc1`, for which the GI50 with HCT-15 colon was 1.25 µM; with CCRF-CEM leukemia, 2.37 µM; with SN12C renal it was 3.84 µM; in the test with MDA-MB-231 breast it was 2.37 µM; in the test on U251 CNS, 1.57 µM; in the test with SK-MEL-2 melanoma, 5.06 µM. Also, in the test with HOP-62 NSCLC, the GI50 was 3.75 µM. The TGI in the test with HCT-15 colon is 8.77 µM; in the test with CCRF-CEM leukemia, greater than 25 µM; in the test on SN12C renal, 14.3 µM; in the test with MDA-MB-231 breast it was 9.61 µM; with U251 CNS, 5.27 µM; in the test with SK-MEL-2 melanoma, 13.3 µM. For the same compound, in the test with HOP-62 NSCLC, the TGI is 20.8 µM.

With `Fc1cccc(COc2ccc(Nc3ncnc4cc(-c5ccc[nH]5)sc34)cc2Cl)c1`, the GI50 with HCT-15 colon is 0.264 µM; in the test with CCRF-CEM leukemia, 0.44 µM; in the test on SN12C renal it was 1.42 µM; with MDA-MB-231 breast it was 0.734 µM; with U251 CNS, 3.51 µM; in the test on SK-MEL-2 melanoma it was 6.77 µM. The GI50 with HOP-62 NSCLC was 3.01 µM. In addition, the TGI in the test on HCT-15 colon was greater than 13 µM; with CCRF-CEM leukemia, greater than 25 µM; with SN12C renal, greater than 25 µM; in the test on MDA-MB-231 breast, greater than 15.7 µM; in the test on U251 CNS, 17.5 µM; in the test with SK-MEL-2 melanoma, greater than 25 µM. In the test with HOP-62 NSCLC, this compound registered a TGI of 8.52 µM.

For `COc1cc(-c2cn(-c3ccc(Cl)cc3)c(C)c2C(=O)C(F)(F)F)cc(OC)c1OC`, the GI50 with HCT-15 colon is greater than 100 µM; in the test on CCRF-CEM leukemia it was 16.1 µM; in the test on SN12C renal, 12.7 µM; in the test with MDA-MB-231 breast, greater than 100 µM; with U251 CNS it was greater than 100 µM; in the test on SK-MEL-2 melanoma, greater than 100 µM. In addition, the GI50 in the test with HOP-62 NSCLC is greater than 100 µM. Besides, the TGI in the test with HCT-15 colon, with CCRF-CEM leukemia, in the test on SN12C renal, in the test on MDA-MB-231 breast, in the test on U251 CNS and with SK-MEL-2 melanoma was greater than 100 µM throughout. In the test on HOP-62 NSCLC, this compound gave a TGI greater than 100 µM.

Consider `CC1OC2CC(=O)OC2C2=C1C(=O)c1c(O)c3c(c(O)c1C2=O)C1CC(O)C3(O)C(C)O1` (centres undefined), for which the GI50 was 0.367 µM in the test on HCT-15 colon; 0.26 µM in the test with CCRF-CEM leukemia; 0.211 µM in the test with SN12C renal; 0.25 µM with MDA-MB-231 breast; 0.296 µM in the test on U251 CNS; 0.701 µM with SK-MEL-2 melanoma. The GI50 in the test on HOP-62 NSCLC was 0.826 µM. Moreover, the TGI in the test with HCT-15 colon amounted to 3.69 µM; in the test with CCRF-CEM leukemia, 13.6 µM; with SN12C renal it was 0.539 µM; in the test on MDA-MB-231 breast it was 0.712 µM; in the test with U251 CNS, 1.07 µM; in the test with SK-MEL-2 melanoma, 2.26 µM. Further, in the test on HOP-62 NSCLC, the TGI was found to be 2.8 µM.

Consider `COC(=O)CNC(=O)[C@@H](OC)[C@@H]1Cc2cc3cc(OC4CC(OC5CC(O)C(O)C(C)O5)C(O)C(C)O4)c(C)c(O)c3c(O)c2C(=O)[C@H]1OC1CC(OC2CC(OC3CC(C)(O)C(O)C(C)O3)C(O)C(C)O2)C(O)C(C)O1` (some centres undefined), for which the GI50 was 1.12 µM with HCT-15 colon; 0.186 µM in the test on CCRF-CEM leukemia; 0.138 µM in the test with SN12C renal; 0.267 µM in the test with MDA-MB-231 breast; 0.0806 µM with U251 CNS; 0.147 µM with SK-MEL-2 melanoma. The GI50 in the test on HOP-62 NSCLC is 0.0908 µM. Besides, the TGI in the test on HCT-15 colon was greater than 50 µM; with CCRF-CEM leukemia, greater than 50 µM; in the test with SN12C renal, greater than 50 µM; in the test with MDA-MB-231 breast, greater than 50 µM; in the test with U251 CNS, greater than 50 µM; in the test with SK-MEL-2 melanoma, 0.712 µM. This compound came in with a TGI in the test with HOP-62 NSCLC greater than 50 µM.

For the compound `Cc1cc2c3ccccc3n(C)c2c2c1C(=O)C=CC2=O`, the TGI in the test on HCT-15 colon was 29.2 µM; in the test with CCRF-CEM leukemia it was greater than 36 µM; in the test with SN12C renal, 35.9 µM; in the test on MDA-MB-231 breast, 32.7 µM; in the test with U251 CNS it was 32.6 µM; with DLD-1 colon, 27 µM. In addition, the TGI is 37.7 µM with SK-MEL-2 melanoma and 49.9 µM in the test with HOP-62 NSCLC.

Regarding `CN(C)c1ccc2cc(-c3ccccc3F)c(N)nc2c1`, the GI50 is 0.469 µM with HCT-15 colon; 2.04 µM in the test on CCRF-CEM leukemia; 4.55 µM in the test with SN12C renal; 3.71 µM in the test with MDA-MB-231 breast; 1.24 µM in the test on U251 CNS; 2.05 µM with SK-MEL-2 melanoma. Moreover, the GI50 with HOP-62 NSCLC was 1.68 µM. Further, the TGI in the test on HCT-15 colon turned out to be 13.2 µM; in the test on CCRF-CEM leukemia it was 43.7 µM; with SN12C renal, 19.2 µM; in the test with MDA-MB-231 breast, 19.6 µM; with U251 CNS, 12.7 µM; in the test with SK-MEL-2 melanoma, 15 µM. For the same compound, in the test with HOP-62 NSCLC, the TGI amounted to 12.7 µM.
